Measurements published in ChEMBL document CHEMBL1201862, “PubChem BioAssay data set” (2004).
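Cells were grown in 96-well plates and exposed to each compound for 48 hours at five concentrations; endpoints were interpolated linearly between bracketing concentrations, or set to the highest concentration if not reached. GI50 = concentration required for 50% inhibition of growth.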 Active and inactive are the calls of the source. No stated cut-off is given here; in the data, active = GI50 up to about 1.1 µM and inactive = higher.

Tests used:
Assay in all cases: NCI-60 cell line screen, 48 h
786-0 = test system: 786-0
A498 = test system: A498
A549 = test system: A549
ACHN = test system: ACHN
BT-549 = test system: BT-549
CCRF-CEM = test system: CCRF-CEM
COLO 205 = test system: COLO 205
HCT-116 = test system: HCT-116
HCT-15 = test system: HCT-15
MDA-MB-435 = test system: MDA-MB-435
OVCAR-8 = test system: OVCAR-8
SF-268 = test system: SF-268
SF-295 = test system: SF-295
SK-MEL-28 = test system: SK-MEL-28
SK-MEL-5 = test system: SK-MEL-5
SK-OV-3 = test system: SK-OV-3
SN12C = test system: SN12C
SNB-75 = test system: SNB-75
SR = test system: SR
UACC-62 = test system: UACC-62

`COc1ccc(C2(CC(C)O)SCCCS2)cc1` (stereo not given) was tested, and the GI50 (786-0) was > 100 µM (inactive), the GI50 (A498) was > 100 µM (inactive) and the GI50 (A549) was > 100 µM (inactive). The GI50 (ACHN) was > 100 µM (inactive), the GI50 (BT-549) was > 100 µM (inactive) and the GI50 (CCRF-CEM) was 63.1 µM (inactive). For the same compound, the GI50 (COLO 205) was > 100 µM (inactive), the GI50 (HCT-116) was > 100 µM (inactive) and the GI50 (HCT-15) was greater than 100 µM. The GI50 (MDA-MB-435) was > 100 µM (inactive), the GI50 (OVCAR-8) was > 100 µM (inactive) and the GI50 (SF-268) was > 100 µM (inactive). The GI50 (SF-295) was > 100 µM (inactive), the GI50 (SK-MEL-28) was > 100 µM (inactive) and the GI50 (SK-MEL-5) was > 100 µM (inactive). The GI50 (SK-OV-3) was > 100 µM (inactive), the GI50 (SN12C) was > 100 µM (inactive) and the GI50 (SNB-75) was > 100 µM (inactive). The GI50 (SR) was > 100 µM (inactive) and the GI50 (UACC-62) was > 100 µM (inactive).

`O=C(c1cccc(OCc2ccccc2)c1OCc1ccccc1)N1CCSC1=S` was tested, and the GI50 (786-0) was 42.8 µM (inactive), the GI50 (A498) was 16.5 µM (inactive) and the GI50 (A549) was 23.7 µM (inactive). The GI50 (ACHN) was 33.8 µM (inactive), the GI50 (BT-549) was 29.5 µM (inactive) and the GI50 (CCRF-CEM) was 5.05 µM (inactive). The GI50 (COLO 205) was 12 µM (inactive), the GI50 (HCT-116) was 21.4 µM (inactive) and the GI50 (HCT-15) was 23.2 µM. The GI50 (MDA-MB-435) was 27.2 µM (inactive), the GI50 (OVCAR-8) was 21.8 µM (inactive) and the GI50 (SF-268) was 11.9 µM (inactive). The GI50 (SF-295) was 30 µM (inactive), the GI50 (SK-MEL-28) was 48.5 µM (inactive) and the GI50 (SK-MEL-5) was 14 µM (inactive). For the same compound, the GI50 (SK-OV-3) was 30.1 µM (inactive), the GI50 (SN12C) was 19.5 µM (inactive) and the GI50 (SNB-75) was 5.64 µM (inactive). The GI50 (SR) was 8.36 µM (inactive) and the GI50 (UACC-62) was 19.2 µM (inactive).

With `CC(=O)O[C@@H]1C(C2CCCCC2)C=[N+]([O-])O[C@@H]1OC1CCCC1(c1ccccc1)c1ccccc1` (stereo not given in full) the GI50 (786-0) was 3.76 µM (inactive), the GI50 (A498) was 7.41 µM (inactive) and the GI50 (A549) was 14.8 µM (inactive). The GI50 (ACHN) was 2.21 µM (inactive), the GI50 (BT-549) was 12.4 µM (inactive) and the GI50 (CCRF-CEM) was 2.63 µM (inactive). The GI50 (COLO 205) was 5.73 µM (inactive), the GI50 (HCT-116) was 4.06 µM (inactive) and the GI50 (HCT-15) was 1.92 µM. The GI50 (MDA-MB-435) was 3.06 µM (inactive), the GI50 (OVCAR-8) was 2.04 µM (inactive) and the GI50 (SF-268) was 7.4 µM (inactive). The GI50 (SF-295) was 14.4 µM (inactive), the GI50 (SK-MEL-28) was 2.32 µM (inactive) and the GI50 (SK-MEL-5) was 14.3 µM (inactive). For the same compound, the GI50 (SK-OV-3) was 15.7 µM (inactive), the GI50 (SN12C) was 9.23 µM (inactive) and the GI50 (SNB-75) was 3.85 µM (inactive). The GI50 (SR) was 2.62 µM (inactive) and the GI50 (UACC-62) was 5.81 µM (inactive).
